Measurements: patent US20220235065A1 (Epizyme, Inc., priority 2016, published 2022)

Key:
[1] = biological target: T1, recombinant purified human EHMT2 913-1193 (Homo sapiens, UniProt Q96KQ7); experiment: EHMT2 enzyme assay on histone peptide substrate (3H-SAM Flashplate); assay type: biochemical; details: read-out: EHMT2 PEP (IC50 μM)
T1 construct: Recombinant purified human EHMT2 913-1193 (55 μM) synthesized by Viva was used for all experiments; purchased Viva
T1 sequence (Q96KQ7 913-1193): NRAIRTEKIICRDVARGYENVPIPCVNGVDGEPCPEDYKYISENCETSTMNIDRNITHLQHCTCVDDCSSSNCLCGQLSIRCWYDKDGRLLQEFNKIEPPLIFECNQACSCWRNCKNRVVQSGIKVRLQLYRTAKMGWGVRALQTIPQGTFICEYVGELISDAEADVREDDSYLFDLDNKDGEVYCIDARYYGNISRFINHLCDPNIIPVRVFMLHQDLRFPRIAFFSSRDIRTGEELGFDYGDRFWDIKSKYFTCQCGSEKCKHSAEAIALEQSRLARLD
Method in brief: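 Compounds (10-point 3-fold series, top 50 μM final, 2% DMSO) preincubated 30 min with 0.031 nM EHMT2 in 20 mM Bicine pH 7.5, 1 mM TCEP; reaction started with 3H-SAM and biotinylated H3 1-15 peptide, both at Km, run 60 min at room temperature. Flashplate capture; IC50 from four-parameter fit, triplicates.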

EHMT1 = biological target: T2, EHMT1 (Homo sapiens, UniProt Q9H9B1); experiment: EHMT1 PEP (EHMT1 peptide enzyme assay); assay type: biochemical; details: peptide substrate enzyme assay
T2 sequence (Q9H9B1 1-1298): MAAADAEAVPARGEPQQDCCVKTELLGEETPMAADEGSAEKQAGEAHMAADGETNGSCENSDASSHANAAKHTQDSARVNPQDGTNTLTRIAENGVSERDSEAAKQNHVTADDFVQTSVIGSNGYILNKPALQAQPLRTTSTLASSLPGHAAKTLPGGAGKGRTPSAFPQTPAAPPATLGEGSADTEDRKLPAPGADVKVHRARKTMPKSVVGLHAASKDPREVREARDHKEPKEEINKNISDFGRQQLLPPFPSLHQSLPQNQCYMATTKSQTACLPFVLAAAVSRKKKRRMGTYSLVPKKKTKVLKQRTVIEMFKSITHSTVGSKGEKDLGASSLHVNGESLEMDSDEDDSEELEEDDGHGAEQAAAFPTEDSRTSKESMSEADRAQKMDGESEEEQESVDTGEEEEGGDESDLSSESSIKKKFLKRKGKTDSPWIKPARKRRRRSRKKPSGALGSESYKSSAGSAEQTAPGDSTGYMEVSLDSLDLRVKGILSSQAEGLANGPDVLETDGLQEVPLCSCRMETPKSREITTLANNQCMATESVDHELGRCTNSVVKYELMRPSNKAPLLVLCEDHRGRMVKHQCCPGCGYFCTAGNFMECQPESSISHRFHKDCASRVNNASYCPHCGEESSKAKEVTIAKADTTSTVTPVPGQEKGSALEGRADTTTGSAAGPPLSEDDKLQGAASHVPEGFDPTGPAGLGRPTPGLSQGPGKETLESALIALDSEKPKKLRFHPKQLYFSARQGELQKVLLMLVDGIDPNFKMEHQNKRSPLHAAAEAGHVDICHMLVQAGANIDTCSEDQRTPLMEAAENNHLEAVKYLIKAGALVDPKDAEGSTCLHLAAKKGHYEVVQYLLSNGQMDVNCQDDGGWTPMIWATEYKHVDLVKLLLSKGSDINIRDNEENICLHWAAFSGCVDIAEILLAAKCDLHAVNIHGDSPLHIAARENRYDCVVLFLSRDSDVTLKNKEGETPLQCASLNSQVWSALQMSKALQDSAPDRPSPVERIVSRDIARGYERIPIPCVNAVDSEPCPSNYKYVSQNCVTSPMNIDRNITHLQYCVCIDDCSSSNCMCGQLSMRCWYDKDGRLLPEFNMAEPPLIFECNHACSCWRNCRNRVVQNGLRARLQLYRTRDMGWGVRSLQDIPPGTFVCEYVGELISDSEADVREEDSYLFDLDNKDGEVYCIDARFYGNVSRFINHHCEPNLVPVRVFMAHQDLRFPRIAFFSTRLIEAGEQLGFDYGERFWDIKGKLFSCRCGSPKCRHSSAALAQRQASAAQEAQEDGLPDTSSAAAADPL

## CNCc1cnn(-c2cc(Nc3nc(C)cc(NC)n3)ccc2OC)c1 [Compound 285]
[1]
  IC50: < 0.1 µM
EHMT1
  IC50: < 0.1 µM

## CNCc1cnn(-c2cc(Nc3nc(C)cc(NC)n3)ccc2C)c1 [Compound 286, N4,6-dimethyl-N2-(4-methyl-3-(4-((methylamino)methyl)-1H-pyrazol-1-yl)phenyl)pyrimidine-2,4-diamine]
[1]
  IC50: < 0.1 µM
EHMT1
  IC50: < 0.1 µM

## CNc1cc(C)nc(Nc2ccc(C)c(C(=O)Nc3cnccn3)c2)n1 [Compound 287]
[1]
  IC50: 1 to 10 µM
EHMT1
  IC50: 0.1 to 1 µM

## CNc1cc(C)nc(Nc2ccc(OC)c(-c3[nH]c4cnccc4c3C#N)c2)n1 [Compound 291]
[1]
  IC50: 1 to 10 µM
EHMT1
  IC50: 1 to 10 µM

## CNc1cc(C)nc(Nc2ccc(OC)c(-c3cc4[nH]ccc4c(C#N)n3)c2)n1 [Compound 292]
[1]
  IC50: 0.1 to 1 µM
EHMT1
  IC50: < 0.1 µM

## CNc1cc(C)nc(Nc2ccc(OC)c(-c3cc4[nH]ccc4c(CNC(C)=O)n3)c2)n1 [Compound 293]
[1]
  IC50: 0.1 to 1 µM
EHMT1
  IC50: < 0.1 µM

## CNC1=Nc2cc(-c3cnc4cc[nH]c4c3)c(OC)cc2C12CCC2 [Compound 294]
[1]
  IC50: < 0.1 µM
EHMT1
  IC50: < 0.1 µM

## CNc1nc2cc(-c3cnc4cc[nH]c4c3)c(OC)cc2n1C [Compound 295]
[1]
  IC50: 1 to 10 µM
EHMT1
  IC50: 0.1 to 1 µM

## CNc1cc(C)nc(Nc2ccc(OC)c(-c3cc4[nH]ccc4c(CN)n3)c2)n1 [Compound 296]
[1]
  IC50: 0.1 to 1 µM
EHMT1
  IC50: < 0.1 µM

## CNc1cc(C)nc(Nc2ccc(C)c(C(=O)Nc3cn(C)nn3)c2)n1 [Compound 299]
[1]
  IC50: > 10 µM
EHMT1
  IC50: 1 to 10 µM

## CNC1=Nc2cc(-c3cc4[nH]ccc4nc3C)c(OC)cc2C12CCC2 [Compound 300]
[1]
  IC50: 0.1 to 1 µM
EHMT1
  IC50: < 0.1 µM

## CNc1cc(C)nc(Nc2ccc(C)c(C(=O)Nc3cn(C)cn3)c2)n1 [Compound 302]
[1]
  IC50: > 10 µM
EHMT1
  IC50: > 10 µM

## CNc1nc2cc(-c3[nH]c4cnccc4c3C)c(OC)cc2n1C [Compound 304]
[1]
  IC50: 0.1 to 1 µM
EHMT1
  IC50: 0.1 to 1 µM

## COc1cc(NC2CCNC2)ccc1-c1[nH]c2cnccc2c1C (centres unmarked) [Compound 305]
[1]
  IC50: 0.1 to 1 µM
EHMT1
  IC50: 1 to 10 µM

## CNc1cc(C)nc(Nc2ccc(OC)c(-c3nccc(NC)n3)c2)n1 [Compound 306]
[1]
  IC50: 1 to 10 µM
EHMT1
  IC50: 1 to 10 µM

## CNCc1cnn(-c2c(F)ccc(Nc3nc(C)cc(NC)n3)c2F)c1 [Compound 307]
[1]
  IC50: < 0.1 µM
EHMT1
  IC50: < 0.1 µM

## CNC1=Nc2cc(-c3cc4[nH]ccc4c(C(N)=O)n3)c(OC)cc2C12CCC2 [Compound 308]
[1]
  IC50: 1 to 10 µM
EHMT1
  IC50: 0.1 to 1 µM

## COc1cc2c(cc1-c1cc3[nH]ccc3cn1)N=C(NCC(N)=O)C21CCC1 [Compound 309]
[1]
  IC50: 1 to 10 µM
EHMT1
  IC50: 0.1 to 1 µM

## COc1cc(NC2CCNCC2)ccc1-c1[nH]c2cnccc2c1C [Compound 310]
[1]
  IC50: 1 to 10 µM
EHMT1
  IC50: 1 to 10 µM

## CNc1cc(C)nc(Nc2cnc(C)c(-c3cc4ccncc4[nH]3)c2)n1 [Compound 311]
[1]
  IC50: > 10 µM
EHMT1
  IC50: > 10 µM

## CNCc1ccnc(-c2cc(Nc3nc(C)cc(NC)n3)ccc2OC)c1 [Compound 313]
[1]
  IC50: 0.1 to 1 µM
EHMT1
  IC50: 0.1 to 1 µM

## CNC1=Nc2cc(-n3cc(CN4CCC4)cn3)c(OC)cc2C12CCC2 [Compound 314]
[1]
  IC50: < 0.1 µM
EHMT1
  IC50: < 0.1 µM

## CNc1cc(C)nc(Nc2ccc(F)c(-n3cc(CN4CCC4)cn3)c2F)n1 [Compound 315]
[1]
  IC50: 0.1 to 1 µM
EHMT1
  IC50: 0.1 to 1 µM

## CNc1cc(C)nc(Nc2ccc(OC)c(-c3[nH]c4cnccc4c3CNC(C)=O)c2)n1 [Compound 316]
[1]
  IC50: < 0.1 µM
EHMT1
  IC50: < 0.1 µM

## CNCc1cnn(-c2c(OC)ccc(Nc3nc(C)cc(NC)n3)c2F)c1 [Compound 317, N2-(2-fluoro-4-methoxy-3-(4-((methylamino)methyl)-1H-pyrazol-1-yl)phenyl)-N4,6-dimethylpyrimidine-2,4-diamine]
[1]
  IC50: < 0.1 µM
EHMT1
  IC50: < 0.1 µM

## CNCc1cnn(-c2c(F)ccc(Nc3nc(C)cc(NC)n3)c2OC)c1 [Compound 318]
[1]
  IC50: 0.1 to 1 µM
EHMT1
  IC50: 0.1 to 1 µM

## CNCc1cnn(-c2cc(Nc3nc(C)cc(NC)n3)ccc2Br)c1 [Compound 319]
[1]
  IC50: < 0.1 µM
EHMT1
  IC50: < 0.1 µM

## CCc1ccc(Nc2nc(C)cc(NC)n2)cc1-n1cc(CNC)cn1 [Compound 320]
[1]
  IC50: < 0.1 µM
EHMT1
  IC50: < 0.1 µM

## CNc1cc(C)nc(Nc2ccc(OC)c(-n3cc(C4CCCN4)cn3)c2)n1 (centres unmarked) [Compound 321]
[1]
  IC50: < 0.1 µM
EHMT1
  IC50: < 0.1 µM

## CNC1=Nc2cc(-n3cc(C4CCCN4)cn3)c(OC)cc2C12CCC2 (centres unmarked) [Compound 322]
[1]
  IC50: < 0.1 µM
EHMT1
  IC50: < 0.1 µM

## CNCc1cn(-c2cc(Nc3nc(C)cc(NC)n3)ccc2OC)nc1F [Compound 323]
[1]
  IC50: < 0.1 µM
EHMT1
  IC50: < 0.1 µM

## CNCc1cc(-c2cc(Nc3nc(C)cc(NC)n3)ccc2OC)on1 [Compound 324]
[1]
  IC50: 0.1 to 1 µM
EHMT1
  IC50: 0.1 to 1 µM

## CNCc1cnn(-c2cc(Nc3nc(C)cc(NC)n3)ccc2C(F)(F)F)c1 [Compound 325]
[1]
  IC50: < 0.1 µM
EHMT1
  IC50: < 0.1 µM

## CNC1=Nc2cc(-n3cc(C4CCCN4)cn3)c(Cl)cc2C12CCC2 (centres unmarked) [Compound 326]
[1]
  IC50: < 0.1 µM
EHMT1
  IC50: < 0.1 µM

## CNCc1cnn(-c2c(Cl)ccc(Nc3nc(C)cc(NC)n3)c2Cl)c1 [Compound 327]
[1]
  IC50: < 0.1 µM
EHMT1
  IC50: < 0.1 µM

## CNCc1cnn(-c2c(Cl)ccc(Nc3nc(C)cc(NC)n3)c2F)c1 [Compound 328]
[1]
  IC50: < 0.1 µM
EHMT1
  IC50: < 0.1 µM

## CNCc1cnn(-c2c(F)ccc(Nc3nc(C)cc(NC)n3)c2Cl)c1 [Compound 329]
[1]
  IC50: < 0.1 µM
EHMT1
  IC50: < 0.1 µM

## CNc1cc(C)nc(Nc2ccc(Cl)c(-n3cc(C4CCCN4)cn3)c2)n1 (centres unmarked) [Compound 330]
[1]
  IC50: < 0.1 µM
EHMT1
  IC50: < 0.1 µM

## CNCc1cc(-c2cc(Nc3nc(C)cc(NC)n3)ccc2OC)no1 [Compound 331]
[1]
  IC50: < 0.1 µM
EHMT1
  IC50: < 0.1 µM

## CNc1cc(C)nc(Nc2ccc(OC)c(-c3cc4[nH]cc(C)c4cn3)c2)n1 [Compound 386]
[1]
  IC50: < 0.1 µM
EHMT1
  IC50: < 0.1 µM
